According to patent publication US20250250230A1, “HETEROCYCLIC COMPOUND” (TAKEDA PHARMACEUTICAL COMPANY LIMITED, priority 2022, published 2025):

The compounds below were run against T1, human orexin type 2 receptor (Homo sapiens, UniProt O43614) (assay: Measurement of orexin type 2 receptor agonist activity (calcium fluorescence, Fluo-4 AM, FDSS)). Settings: test compound 3 μM; CHO cells expressing human OX2 receptor; DMSO = 0%, orexin A (human) = 100%.
T1 construct: expressed in transfected cells
T1 sequence (O43614 1-444): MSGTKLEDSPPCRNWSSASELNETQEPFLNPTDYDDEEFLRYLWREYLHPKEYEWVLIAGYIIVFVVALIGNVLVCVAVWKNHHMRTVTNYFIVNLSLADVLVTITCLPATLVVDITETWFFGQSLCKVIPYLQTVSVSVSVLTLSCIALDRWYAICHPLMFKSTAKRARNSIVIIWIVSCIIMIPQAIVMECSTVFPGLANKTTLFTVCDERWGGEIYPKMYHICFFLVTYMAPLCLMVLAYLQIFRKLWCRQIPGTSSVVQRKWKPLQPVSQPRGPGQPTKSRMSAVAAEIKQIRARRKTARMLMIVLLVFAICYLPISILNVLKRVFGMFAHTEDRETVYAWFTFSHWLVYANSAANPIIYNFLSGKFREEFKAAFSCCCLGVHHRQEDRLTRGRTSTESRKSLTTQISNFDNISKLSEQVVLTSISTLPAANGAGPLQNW
Format: cell-based
How it was run: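 CHO-K1 cells stably expressing human OX2R were loaded with Fluo-4 AM (30 min 37 °C, 30 min RT) in HEPES-buffered HBSS with 0.1% BSA and probenecid. Calcium fluorescence was followed on FDSS for 2 min after compound addition; activity normalised to DMSO (0%) and 10 nM orexin A (100%).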

| OX2R agonist activity (3 μM, %) [%] | Structure (SMILES) |
| --- | --- |
| 103 | CCS(=O)(=O)NC[C@@H]1[C@H](C)CN1C(=O)[C@@H]1C[C@@]1(F)c1ccccc1-c1c(F)cccc1F [Example 360, N-({(2S,3R)-1-[(1S,2S)-2-(2′,6′-difluoro[1,1′-biphenyl]-2-yl)-2-fluorocyclopropane-1-carbonyl]-3-methylazetidin-2-yl}methyl)ethanesulfonamide] |
| 57 | CS(=O)(=O)NCC1CN(C(=O)C2CC2c2ccccc2-c2c(F)cccc2F)CCC1(F)F (racemic) [Example 275, a mixture of rac-N-({(3R)-1-[(1R,2R)-2-(2′,6′-difluoro[1,1′-biphenyl]-2-yl)cyclopropane-1-carbonyl]-4,4-difluoropiperidin-3-yl}methyl)methanesulfonamide and rac-N-({(3S)-1-[(1R,2R)-2-(2′,6′-difluoro[1,1′-biphenyl]-2-yl)cyclopropane-1-carbonyl]-4,4-difluoropiperidin-3-yl}methyl)methanesulfonamide] |
| 94 | CS(=O)(=O)NC[C@@H]1CCN1C(=O)[C@@H]1C[C@H]1c1ccccc1-c1c(F)cccc1F [Example 355, N-({(2S)-1-[(1R,2R)-2-(2′,6′-difluoro[1,1′-biphenyl]-2-yl)cyclopropane-1-carbonyl]azetidin-2-yl}methyl)methanesufonamide] |
| 94 | CS(=O)(=O)NC1CCN(C(=O)C2CC2c2c(F)cccc2-c2c(F)cccc2F)C1 (stereo not drawn) [Example 210, N-{1-[2-(2′,3,6′-trifluoro[1,1′-biphenyl]-2-yl)cyclopropane-1-carbonyl]pyrrolidin-3-yl}methanesulfonamide optical isomer] |
| 100 | CC1C(C(=O)N2CCC[C@H](NS(C)(=O)=O)CC2)C1c1ccccc1-c1c(F)cccc1F (mixture of isomers) [Example 308, a mixture of N-{(4S)-1-[(1R,2R,3S)-2-(2′,6′-difluoro[1,1′-biphenyl]-2-yl)-3-methylcyclopropane-1-carbonyl]azepan-4-yl}methanesulfonamide and N-{(4S)-1-[(1S,2S,3R)-2-(2′,6′-difluoro[1,1′-biphenyl]-2-yl)-3-methylcyclopropane-1-carbonyl]azepan-4-yl}methanesulfonamide] |
| 105 | CS(=O)(=O)NC1CCCN(C(=O)C2CC2c2c(F)cccc2-c2c(F)cccc2F)C1 (stereo not drawn) [Example 211, N-{1-[2-(2′-3,6′-trifluoro[1,1′-biphenyl]-2-yl)cyclopropane-1-carbonyl]piperidin-3-yl}methanesulfonamide optical isomer] |
| 98 | O=C([C@@H]1C[C@@]1(F)c1ccc(F)cc1-c1c(F)cccc1F)N1C[C@@H](F)[C@H]1CNS(=O)(=O)C(F)F [Example 448, 1,1-difluoro-N-({(2R,3R)-3-fluoro-1-[(1S,2S)-2-fluoro-2-(2′,5,6′-trifluoro[1,1′-biphenyl]-2-yl)cyclopropane-1-carbonyl]azetidin-2-yl}methyl)methanesulfonamide] |
| 101 | CS(=O)(=O)N[C@H]1CCCN(C(=O)C2CC2c2c(F)cccc2-c2c(F)cccc2F)C1 (stereo partly drawn) [Example 196, N-{(3S)-1-[(1R,2R)-2-(2′,3,6′-trifluoro[1,1′-biphenyl]-2-yl)cyclopropane-1-carbonyl]piperidin-3-yl}methanesulfonamide, or N-{(3S)-1-[(1S,2S)-2-(2′,3,6′-trifluoro[1,1′-biphenyl]-2-yl)cyclopropane-1-carbonyl]piperidin-3-yl}methanesulfonamide] |
| 92 | CS(=O)(=O)NC1CCN(C(=O)C2CC2c2ccccc2-c2c(F)cccc2Cl)C1 (racemic) [Example 15, a mixture of rac-N-{(3R)-1-[(1R,2R)-2-(2′-chloro-6′-fluoro[1,1′-biphenyl]-2-yl)cyclopropane-1-carbonyl]pyrrolidin-3-yl}methanesulfonamide and rac-N-{(3S)-1-[(1R,2R)-2-(2′-chloro-6′-fluoro[1,1′-biphenyl]-2-yl)cyclopropane-1-carbonyl]pyrrolidin-3-yl}methanesulfonamide] |
| 96 | CS(=O)(=O)NC1CN(C(=O)[C@@H]2C[C@@]2(F)c2ccccc2-c2c(F)cccc2F)CC1(F)F (stereo partly drawn) [Example 331, N-{(3R)-1-[(1S,2S)-2-(2′,6′-difluoro[1,1′-biphenyl]-2-yl)-2-fluorocyclopropane-1-carbonyl]-4,4-difluoropyrrolidin-3-yl}methanesulfonamide, or N-{(3S)-1-[(1S,2S)-2-(2′,6′-difluoro[1,1′-biphenyl]-2-yl)-2-fluorocyclopropane-1-carbonyl]-4,4-difluoropyrrolidin-3-yl}methanesulfonamide] |
| 104 | CCS(=O)(=O)NC[C@H]1[C@@H](F)CN1C(=O)[C@@H]1C[C@@]1(F)c1ccccc1-c1c(F)cccc1F [Example 426, N-({(2S,3S)-1-[(1S,2S)-2-(2′,6′-difluoro[1,1′-biphenyl]-2-yl)-2-fluorocyclopropane-1-carbonyl]-3-fluoroazetidin-2-yl}methyl)ethanesulfonamide] |
| 80 | CS(=O)(=O)NC1CCN(C(=O)C2CC2c2ccccc2-c2ccc(F)cc2F)C1 (racemic) [Example 10, a mixture of rac-N-{(3R)-1-[(1R,2R)-2-(2′,4′-difluoro[1,1′-biphenyl]-2-yl)cyclopropane-1-carbonyl]pyrrolidin-3-yl}methanesulfonamide and rac-N-{(3S)-1-[(1R,2R)-2-(2′,4′-difluoro[1,1′-biphenyl]-2-yl)cyclopropane-1-carbonyl]pyrrolidin-3-yl}methanesulfonamide] |
| 86 | C[C@H]1CN(C(=O)[C@@H]2C[C@H]2c2ccccc2-c2c(F)cccc2F)C[C@H]1NS(C)(=O)=O [Example 265, N-{(3S,4S)-1-[(1R,2R)-2-(2′,6′-difluoro[1,1′-biphenyl]-2-yl)cyclopropane-1-carbonyl]-4-methylpyrrolidin-3-yl}methanesulfonamide] |
| 63 | CS(=O)(=O)NCC1CN(C(=O)C2CC2c2ccccc2-c2c(F)cccc2F)CC1(F)F (racemic) [Example 285, a mixture of rac-N-({(3R)-1-[(1R,2R)-2-(2′,6′-difluoro[1,1′-biphenyl]-2-yl)cyclopropane-1-carbonyl]-4,4-difluoropyrrolidin-3-yl}methyl)methanesulfonamide and rac-N-({(3S)-1-[(1R,2R)-2-(2′,6′-difluoro[1,1′-biphenyl]-2-yl)cyclopropane-1-carbonyl]-4,4-difluoropyrrolidin-3-yl}methyl)methanesulfonamide] |
| 98 | CC1C(C(=O)N2CCCC[C@H](NS(C)(=O)=O)C2)C1c1ccccc1-c1c(F)cccc1F (mixture of isomers) [Example 311, a mixture of N-{(3S)-1-[(1R,2R,3S)-2-(2′,6′-difluoro[1,1′-biphenyl]-2-yl)-3-methylcyclopropane-1-carbonyl]azepan-3-yl}methanesulfonamide and N-{(3S)-1-[(1S,2S,3R)-2-(2′,6′-difluoro[1,1′-biphenyl]-2-yl)-3-methylcyclopropane-1-carbonyl]azepan-3-yl}methanesulfonamide] |
